# Measured values reported in US20200237864A1, “METHODS AND COMPOSITIONS FOR TREATING FIBROTIC INTERSTITIAL LUNG DISEASE” (INSERM (INSTITUT NATIONAL DE LA SANTÉ ET DE LA RECHERCHE …, priority 2017, published 2020).
# Experiments:
# [1] = tested on: Primary human normal lung fibroblasts (CCD-16Lu cells); experiment: Lung fibroblast cell growth assay; assay type: cell-based; details: CK666 100 μM vs DMSO, Day 4
# Description: (§1) Primary human normal lung fibroblasts (CCD-16Lu cells, American Type Culture Collection, Manassas, Va., USA) were grown in DMEM-Glutamax medium supplemented with 10% fetal bovine serum and penicillin/streptomycin (Thermofisher, Villebon-sur-Yvette, France), at 37° C. with 5% CO2. Experiments were performed between passages 7 and 12, when cells reached 70% confluency. Fibroblasts were treated either with 100 μM CK666 (Tocris, Lille, France) or 1/1000 dimethylsulfoxide (DMSO, Sigma,St Quentin Fallavier, France) as a control. In a second set of experiments, fibroblasts were transfected with 4 nM of either short interfering RNAs targeting ARPC2 (siARPC2, Silencer Select, Thermofisher) or control RNAs (siControl), using the Lipofectamine RNAimax reagent (Thermofisher). For cell growth assays, 50 000 cells/well were plated in 12-well plates, grown for 4 days, detached with 5% trypsin and counted using Kova Glasstic counting slides (Thermofisher). […] Cell proteins were recovered in 100 μl lysis buffer (50 mM Tris HCl pH7.4, 150 mM NaCl, 0.1% SDS, 0.5% sodium deoxycholate, 1% Triton X-100) with 1% protease inhibitor (P8340, Sigma) and quantitated by the BiCinchoninic acid Assay (Pierce, Thermofisher); mRNA was extracted using the GeneJET RNA Purification Kit (Thermofisher).
# [2] = tested on: G/F actin ratio in lung fibroblasts (CCD-16Lu cells); experiment: Determination of G- and F-actin levels in lung fibroblasts; assay type: cell-based, human
# Description: as §1, with “In a second set of experiments, fibroblasts were transfected with 4 nM of either short interfering RNAs targeting ARPC2 (siARPC2, Silencer Select, Thermofisher) or control RNAs (siControl), using the Lipofectamine RNAimax reagent (Thermofisher).” left out
# 500 000 cells were seeded in 75 cm2 flasks and treated with either CK666 or DMSO for 24 h. […] Supernatant (G-actin) and pellet (F-actin) samples were analyzed by immunoblotting on polyvinylidene fluoride membranes using a beta-actin primary antibody (Sigma).
# ACTA2 = experiment: Spontaneous and TGFB1-induced ACTA2 expression in lung fibroblasts (RTPCR, cell-based ELISA); parameters: species or system human
# Description: (§2) Primary human normal lung fibroblasts (CCD-16Lu cells, American Type Culture Collection, Manassas, Va., USA) were grown in DMEM-Glutamax medium supplemented with 10% fetal bovine serum and penicillin/streptomycin (Thermofisher, Villebon-sur-Yvette, France), at 37° C. with 5% CO2. Experiments were performed between passages 7 and 12, when cells reached 70% confluency. Fibroblasts were treated either with 100 μM CK666 (Tocris, Lille, France) or 1/1000 dimethylsulfoxide (DMSO, Sigma,St Quentin Fallavier, France) as a control. In a second set of experiments, fibroblasts were transfected with 4 nM of either short interfering RNAs targeting ARPC2 (siARPC2, Silencer Select, Thermofisher) or control RNAs (siControl), using the Lipofectamine RNAimax reagent (Thermofisher). For cell growth assays, 50 000 cells/well were plated in 12-well plates, grown for 4 days, detached with 5% trypsin and counted using Kova Glasstic counting slides (Thermofisher). For differentiation assays, cells were plated in 12-well plates, grown to 70% confluency, treated for 24 h with siControl or siARPC2 when appropriate, starved of serum for 24 h, and treated with either CK666 or DMSO 30 minutes before treatment with either 5 ng/ml recombinant human TGFB1 (R&D Systems, Lille, France) of control solvent for 48h. Cell proteins were recovered in 100 μl lysis buffer (50 mM Tris HCl pH7.4, 150 mM NaCl, 0.1% SDS, 0.5% sodium deoxycholate, 1% Triton X-100) with 1% protease inhibitor (P8340, Sigma) and quantitated by the BiCinchoninic acid Assay (Pierce, Thermofisher); mRNA was extracted using the GeneJET RNA Purification Kit (Thermofisher).
# For cell-based ELISA, cells were grown in 12-well plates, fixed with 4% paraformaldehyde for 15 min, permeabilized with 0.5% Triton X-100 in PBS, blocked with 1% bovine albumin, incubated overnight at 4° C. with an ACTA2 primary antibody (A2547, dilution 1/1000, Sigma), and sequentially incubated with an anti-mouse biotinylated antibody (Vector, dilution 1/400), streptavidin-horseradish peroxidase (R&D Systems), and Tetramethylbenzidine substrate (Sigma). The reaction was stopped with […] and absorbance readings were taken at 450 nm with 570 nm as a reference wavelength. […]
# (§3) RNAs were reverse-transcribed using the First Strand cDNA Synthesis Kit (Thermofisher). Transcripts were quantified by RTPCR (Sybr select Master Mix, Thermofisher) and expressed relative to UBC (human samples) or Gapdh (mouse samples) as an endogenous control using the 2^−ΔCt method.
# COL1 = experiment: Spontaneous and TGFB1-induced COL1 expression in lung fibroblasts (RTPCR, ELISA); assay type: cell-based, human; details: CK666 100 μM
# Description: as §2
# Procollagen-1 (COL1) and Glyćeraldéhyde-3-phosphate déshydrogenase (GAPDH) were quantified by ELISA (DY6220 and DYC5718, R&D Systems). COL1 was expressed relative to GAPDH as an endogenous control.
# as §3
# [3] = tested on: bleomycin-induced lung fibrosis; assay type: in vivo, C57BL6-J mice
# Description: Male, 8-week old C57BL6-J mice (Janvier, Le Genest-St-Ile, France) were treated with an orotracheal instillation of either 120 μg bleomycin (Laboratoires Bellon, France) or saline, under isoflurane anesthesia. In a first set of experiments, mice were treated from the 7th to the 14th day following instillation with daily subcutaneous injections of either 5 mg/kg of the Arp2/3 inhibitor CK666 (Tocris Biochemicals, Bristol, UK) in 100 μl of 40% Dimethylsulfoxide in saline (vehicle) (M. Park et al. 2013), or vehicle alone. Mice were monitored and weighted daily and their diet was supplemented with gel-based food (Dietgel Recovery gels, ClearH2O, Westbrook, Me., USA). On the 14th day following bleomycin, mice were anesthetized with 300 mg/kg Ketamine and 30 mg/kg xylazine, and euthanized by exsanguination. Bronchoalveolar lavage was performed with 2×1 ml saline. Lung were either snap-frozen in liquid nitrogen or inflation-fixed in 4% formaldehyde. Inhibition of the Arp2/3 complex in vivo. The study protocol was approved by the regional ethics board (APAFIS#5669-20 16061413402331).
# Total insoluble collagen was quantified in left lung homogenates (Sircol Insoluble collagen Assay, Biocolor, Carrickfergus, UK). Soluble procollagen-1 was quantified in homogenates of the right upper lung lobe by ELISA (DY6220, R&D Systems). RNAs were extracted from the right middle lung lobe (Allprep, Qiagen) and reverse-transcribed (First Strand cDNA Synthesis Kit, Thermofisher). Transcripts associated with fibrogenesis were quantified by RTPCR (Sybr select Master Mix, Thermofisher) and expressed relative to Gapdh as an endogenous control. The activity of enzymes key to collagen polymerization and degradation was measured in lysates of right lower lobe using fluorimetric assays specific for lysil oxidase (Amplite™ Fluorimetric Lysyl Oxidase Assay, AAT Bioquest, Sunnyvale, Calif., USA) and collagenase (fluorimetric DQ collagen type 1, Sigma Aldrich, St Quentin-Fallavier, France). Clostridium histolyticum collagenase (Sigma-Aldrich) was used as a positive control for collagenase assays. Total BALF proteins were measured with the BCA protein assay (Thermofisher). BALF cells were counted using a hemocytometer. For histological analysis, 5-μm sections of paraffin-embedded lung were stained with Masson's trichrome stain.
# [4] = bleomycin-instilled mice, CK666 vs vehicle
# [5] = lung lysates, bleomycin-instilled mice, CK666 vs vehicle
# [6] = mouse lungs, CK666 5 mg/kg daily day 7-14, RTPCR
smiles,measurement,setting,value
Cc1[nH]c2ccccc2c1CCNC(=O)c1ccccc1F [CK666],reduction of cell growth (fold-increase in cell number relative to seeding),[1],36%
same,TGFB1-induced increase in the G/F actin ratio,"[2]; TGFB1 5 ng/ml, CK666 100 μM or 4 nM siARPC2",inhibited
same,G/F actin ratio,"[2]; unstimulated lung fibroblasts, CK666 100 μM vs DMSO or 4 nM siARPC2 vs siControl",increased
same,TGFB1-driven increase in ACTA2 mRNA,"ACTA2; TGFB1 5 ng/ml 48 h, RTPCR",partially
same,TGFB1-driven increase in ACTA2 protein,"ACTA2; TGFB1 5 ng/ml 48 h, cell-based ELISA",totally
same,expression of ACTA2 mRNA,"ACTA2; unstimulated lung fibroblasts, CK666 100 μM, RTPCR",did not modulate
same,expression of ACTA2 protein,"ACTA2; unstimulated lung fibroblasts, CK666 100 μM, cell-based ELISA",did not modulate
same,reduction of the TGFB1-driven increase in COL1 protein,"COL1; TGFB1 5 ng/ml, ELISA, trend, p=0.13",30%
same,TGFB1-driven increase in COL1A1 mRNA,"COL1; TGFB1 5 ng/ml, RTPCR",did not modulate
same,TGFB1-driven increase in COL1A2 mRNA,"COL1; TGFB1 5 ng/ml, RTPCR",did not modulate
same,reduction of COL1/GAPDH protein ratio,"COL1; unstimulated cells, ELISA",54%
same,expression of COL1A1 mRNA,"COL1; unstimulated cells, RTPCR",did not modulate
same,expression of COL1A2 mRNA,"COL1; unstimulated cells, RTPCR",did not modulate
same,reduction of lung content in procollagen-1,"[3]; bleomycin-instilled mice, CK666 5 mg/kg daily day 7-14 vs vehicle, ELISA",55%
same,bleomycin-induced increase in BALF total protein,[3]; [4],reduced neither
same,bleomycin-induced weight loss,[3]; [4],reduced neither
same,lung levels of LOX mRNA,[3]; [4],did not reduced
same,lung levels of LOXL2 mRNA,[3]; [4],did not reduced
same,lung levels of TG2 mRNA,[3]; [4],did not reduced
same,bleomycin-induced increase in lung Collal mRNA,"[3]; bleomycin-instilled mice, CK666 vs vehicle, RTPCR relative to Gapdh",did not reduce
same,reduction of lung insoluble collagen,"[3]; bleomycin-instilled mice, left lung, CK666 5 mg/kg daily day 7-14 vs vehicle, Sircol assay",20%
same,bleomycin-induced increase in lung lysyl oxidase activity,[3]; [5],not modified
same,lung collagenase activity,[3]; [5],no effect
same,lung expression of Arp2 mRNA,[3]; [6],increased expression
same,lung expression of ArpCla mRNA,[3]; [6],increased expression
same,lung expression of Arpc3 mRNA,[3]; [6],increased expression
same,lung histology,"[3]; mouse, in vivo",did not result in modifications of lung histology
